In one data set the test system is MiaPaCa-2 cells. The data set is described as follows: rapid induction of cell death, timed exposure and washout of MiaPaCa-2 cells. In kind it is cell-based, human. As to the method:
Representative pancreatic cancer cells MiaPaCa-2 (MCT-1: 163 TPM, Expression Atlas) were plated in a 96 well plate at 12,000 cells/well. These cells were then exposed to a 2-fold dilution series of sCD-3BP and free 3BP for different amounts of time (exposure time: 15 minutes, 30 minutes, 1 hour, 2 hours, 4 hours and 8 hours) and their outcome recorded by Incucyte® Live-Cell Analysis Systems, over 36 hours. After the desired timed exposure, cells were washed with PBS and fresh media was added to ensure no more drug persisted in the respective wells. […] The IC50 of both agents was calculated to be 84-90 uM when cells were exposed to the drug for only 15 minutes. […] While treated cells looked initially healthy following drug washout, cell death became discernable 24 hours post exposure.

The test system of another data set is DLD-1 MCT-1(-) cells. The experiment in a line: effect of MCT-1 loss on sensitivity: DLD-1 MCT-1(-) knock-out cells. In kind it is cell-based, human. The following applies: even at 200 uM. As to the method: (§1) The Alt-R CRISPR system (Integrated DNA Technologies, IDT) was used to delete SLC16A1, the gene encoding for the MCT-1 protein, in the DLD-1 and MiaPaCa-2 cell lines. The gRNA sequence was designed using CHOPCHOP v.3 12. Briefly, Alt-R CRISPR Cas9 crRNAs ([…], IDT; SEQ ID NO:1) and Alt-R CRISPR-Cas9 tracrRNA (1072532, IDT) were re-suspended at 100 μM with Nuclease-Free Duplex Buffer (IDT). The crRNAs and tracrRNA were mixed at a 1:1 molar ratio and denatured for 5 min at 95° C., followed by slow cooling to room temperature to duplex prior to mixing with Cas9 Nuclease (1081059, IDT) at a 1.2:1 molar ratio for 15 min. Forty pmoles of the Cas9 ribonucleoprotein (RNP) containing tracrRNA/MCT-1 crRNA duplex were mixed with 2×10^5 DLD-1 cells in 20 μL of OptiMEM (31985088, ThermoFisher Scientific). This mixture was loaded into a 0.1 cm cuvette (1652089, Bio Rad) and electroporated at 120 V for 16 ms using an ECM 2001 (Harvard Apparatus). Cells were immediately transferred to complete growth medium and cultured for one week. Upon reaching confluence, polyclonal pools were plated at a density of 0.5 to 2 cells per well in 96-well plates and cultured for 3 weeks. Single colonies were transferred into 2 replica 96-well plates. […]

The subject of the next data set is DLD-1 parental cells. The data set is described as follows: effect of MCT-1 loss on sensitivity: DLD-1 parental cells. In kind it is cell-based, human. To be noted: 0-200 uM. As to the method: as §1
Data set [1] can be described thus: stability of CD-3BP complexes and free 3BP in sera, residual 3BP by cell toxicity assay (HCT-116). In kind it is in vitro ADME, human. The following applies: incubated with sera at 37° C. for up to 8 hours. The source says: However, how microencapsulation in CD alters the solubility and stability of 3BP and whether chemical modifications of CDs can alter physicochemical characteristics of the drug remains unclear. To address these questions and clarify the biological effect of microencapsulation, an assay was designed to estimate the stability of various CD-3BP complexes when compared to free 3BP in human sera.
Two different types of complexes, the previously used sCD-3BP (Chapiro, J. et al., Clinical cancer research: An official journal of the American Association for Cancer Research 20, 6406-6417, doi:10.1158/1078-0432.ccr-14-1271 (2014)) and newly generated HPCD-3BP were compared side-by-side. […] Aliquots were collected at various time points and assessed for residual 3BP by a cell toxicity assay. […]
Free 3BP, sCD-3BP and HPCD-3BP were incubated at various concentrations (12.5 μM, 25 μM, 50 μM, 100 μM and 200 μM) with 90 μL of mouse sera at 37° C. for up to 8 hours. […] Un-degraded biologically active 3BP at each time was then assessed by a cell toxicity assay. […] Cell death was measured by imaging cells after 72 hours using the IncuCyte® Live Cell-Analysis System (Essen Bioscience) and using the CellTox™ Green Cytotoxicity Assay (Promega), following the manufacturer's recommendation. […]

A further data set deals with T1, MCT-1 (Homo sapiens, UniProt P53985).
T1 construct: endogenous in cells
T1 sequence (P53985 1-500): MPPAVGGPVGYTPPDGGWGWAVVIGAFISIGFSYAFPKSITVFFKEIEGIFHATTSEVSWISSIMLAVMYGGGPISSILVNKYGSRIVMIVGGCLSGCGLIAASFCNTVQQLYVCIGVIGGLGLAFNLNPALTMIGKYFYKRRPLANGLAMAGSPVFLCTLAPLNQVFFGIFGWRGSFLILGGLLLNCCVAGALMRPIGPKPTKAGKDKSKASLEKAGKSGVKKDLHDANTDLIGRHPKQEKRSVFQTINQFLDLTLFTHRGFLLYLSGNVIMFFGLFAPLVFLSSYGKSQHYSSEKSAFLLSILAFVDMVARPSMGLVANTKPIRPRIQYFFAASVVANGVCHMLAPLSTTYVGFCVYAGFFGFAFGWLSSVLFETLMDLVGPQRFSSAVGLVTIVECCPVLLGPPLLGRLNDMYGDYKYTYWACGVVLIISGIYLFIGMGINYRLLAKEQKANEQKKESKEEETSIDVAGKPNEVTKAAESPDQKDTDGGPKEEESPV
T1 sequence (P35613 140-385 partner limits assumed): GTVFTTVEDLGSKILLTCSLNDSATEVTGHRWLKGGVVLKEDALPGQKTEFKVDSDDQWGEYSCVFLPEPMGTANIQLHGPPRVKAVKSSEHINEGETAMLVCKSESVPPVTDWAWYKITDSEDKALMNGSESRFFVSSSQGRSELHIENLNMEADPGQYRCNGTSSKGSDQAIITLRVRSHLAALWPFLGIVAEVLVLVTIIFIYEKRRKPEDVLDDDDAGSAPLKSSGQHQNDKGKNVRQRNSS
In kind it is cell-based. From the text:
To gain insight into this lack of sensitivity, the expression levels of three cell surface channels, GLUT-1 (Yu, M. et al. The prognostic value of GLUT1 in cancers: a systematic review and meta-analysis. Oncotarget 8, 43356-43367, doi:10.18632/oncotarget.17445 (2017)), MCT-1 and MCT-4 (Hong, C. S. et al. MCT1 Modulates Cancer Cell Pyruvate Export and Growth of Tumors that Co-express MCT1 and MCT4. Cell Reports 14, 1590-1601, doi:10.1016/j.celrep.2016.01.057 (2016)) were compared in all 7 pancreatic cancer cell lines using RNA expression atlas (FIG. 4A). While neither GLUT1 (primarily responsible for glucose uptake and therefore, the FDG-PET positive phenotype) nor MCT-4 expression levels of CFPAC-1 were lower than other cell lines in the panel, expression levels of MCT-1 in CFPAC-1 (22 TPM) was nearly three-fold lower than the next lowest expressor (BxPC-3, 64 TPM) in the cell line panel (FIG. 4B). […]

This note sets out measurements from patent publication US20230338297A1, “Encapsulated Agents that Bind to MCT-1” (THE JOHNS HOPKINS UNIVERSITY, priority 2020, published 2023).

SMILES strings stand for the structures.

For `O=C(O)C(=O)CBr` [3BP, 3-bromopyruvate], the “potency at killing MiaPaCa-2 cells, sCD-3BP compared with 3BP” value in the data set with MiaPaCa-2 cells is “equally potent”. Moreover, the loss of viability result with DLD-1 MCT-1(-) cells is listed as “no loss of viability”. Moreover, the cell death entry in the data set with DLD-1 parental cells is on record as “dramatic cell death”. In addition, the “stability / protection against degradation in sera” value in data set [1] (listed as Free 3BP) is listed as “rapidly degraded”; in data set [1] (listed as free 3BP), “rapid degradation”.
On to `Cc1[nH]nc(C(F)(F)F)c1Cc1sc2c(c1C(=O)N1C[C@](C)(O)CO1)c(=O)n(C)c(=O)n2C(C)C` [AZD3965], for which the “rescue of cells from CD-3BP mediated cytotoxicity” value at MCT-1 was “clear dose dependent rescue”.
